The source of these data is ChEMBL document CHEMBL1909046, “DrugMatrix in vitro pharmacology data”.

Sequence of Sigma non-opioid intracellular receptor 1 (Q99720 whole entry): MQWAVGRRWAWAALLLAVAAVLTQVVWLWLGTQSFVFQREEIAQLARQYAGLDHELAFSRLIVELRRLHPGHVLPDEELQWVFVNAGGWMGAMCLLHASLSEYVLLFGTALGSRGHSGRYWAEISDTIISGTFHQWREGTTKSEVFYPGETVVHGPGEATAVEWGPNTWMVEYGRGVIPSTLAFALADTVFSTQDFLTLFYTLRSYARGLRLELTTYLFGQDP
Sequence of Mitogen-activated protein kinase 14 (Q16539 whole entry): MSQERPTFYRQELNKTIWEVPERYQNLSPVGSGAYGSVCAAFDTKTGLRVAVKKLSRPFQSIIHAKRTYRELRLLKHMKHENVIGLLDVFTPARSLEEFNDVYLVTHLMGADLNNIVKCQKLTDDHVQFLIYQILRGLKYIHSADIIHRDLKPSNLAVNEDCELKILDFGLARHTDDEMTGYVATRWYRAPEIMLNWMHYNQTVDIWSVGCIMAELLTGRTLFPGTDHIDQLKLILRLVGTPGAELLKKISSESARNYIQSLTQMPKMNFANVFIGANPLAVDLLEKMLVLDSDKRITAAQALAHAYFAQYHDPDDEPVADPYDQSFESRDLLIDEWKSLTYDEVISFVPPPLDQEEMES
Sequence of Nitric oxide synthase 1 (P29476 whole entry): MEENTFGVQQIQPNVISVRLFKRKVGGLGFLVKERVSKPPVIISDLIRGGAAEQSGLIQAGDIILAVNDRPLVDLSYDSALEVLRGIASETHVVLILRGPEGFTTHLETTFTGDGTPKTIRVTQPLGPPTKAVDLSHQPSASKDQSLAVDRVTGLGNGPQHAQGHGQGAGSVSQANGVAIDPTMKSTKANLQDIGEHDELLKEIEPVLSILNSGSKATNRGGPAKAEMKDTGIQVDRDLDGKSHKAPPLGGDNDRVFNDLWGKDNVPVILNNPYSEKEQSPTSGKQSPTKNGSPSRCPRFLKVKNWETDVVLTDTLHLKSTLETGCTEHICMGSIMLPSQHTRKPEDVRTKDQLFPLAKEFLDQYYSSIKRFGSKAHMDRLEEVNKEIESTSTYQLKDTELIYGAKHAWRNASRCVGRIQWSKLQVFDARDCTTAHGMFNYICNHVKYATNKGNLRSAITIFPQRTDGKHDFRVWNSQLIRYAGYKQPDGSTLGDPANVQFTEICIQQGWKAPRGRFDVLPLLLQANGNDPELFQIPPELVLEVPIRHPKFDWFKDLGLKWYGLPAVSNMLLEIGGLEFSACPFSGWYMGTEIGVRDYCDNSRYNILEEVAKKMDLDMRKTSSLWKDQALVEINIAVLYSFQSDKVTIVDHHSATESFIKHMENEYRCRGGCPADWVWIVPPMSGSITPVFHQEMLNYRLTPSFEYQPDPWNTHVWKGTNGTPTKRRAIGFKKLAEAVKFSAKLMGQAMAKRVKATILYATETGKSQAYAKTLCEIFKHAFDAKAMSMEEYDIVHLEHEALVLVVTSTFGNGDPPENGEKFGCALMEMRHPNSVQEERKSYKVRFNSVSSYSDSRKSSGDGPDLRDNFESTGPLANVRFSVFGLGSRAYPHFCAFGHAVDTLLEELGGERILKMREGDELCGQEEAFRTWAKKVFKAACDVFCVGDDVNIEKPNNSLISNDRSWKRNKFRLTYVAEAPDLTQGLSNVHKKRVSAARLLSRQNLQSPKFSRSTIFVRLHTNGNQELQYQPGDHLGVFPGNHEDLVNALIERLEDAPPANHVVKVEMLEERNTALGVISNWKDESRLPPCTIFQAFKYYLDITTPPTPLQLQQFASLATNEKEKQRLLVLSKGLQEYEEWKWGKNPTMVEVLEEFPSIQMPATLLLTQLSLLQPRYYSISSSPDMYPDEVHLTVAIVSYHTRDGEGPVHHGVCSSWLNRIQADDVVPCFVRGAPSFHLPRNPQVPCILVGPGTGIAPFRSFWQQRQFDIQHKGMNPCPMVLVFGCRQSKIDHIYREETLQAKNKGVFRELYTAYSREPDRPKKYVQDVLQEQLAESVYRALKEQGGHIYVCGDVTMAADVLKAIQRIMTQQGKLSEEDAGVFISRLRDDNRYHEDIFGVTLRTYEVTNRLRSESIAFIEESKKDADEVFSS

One test deals with Delta-type opioid receptor (Homo sapiens, UniProt P41143). The class given is cell membranes, HEK293, Membrane. As to conditions: hek293.
With `C/C=C1\[C@H]2C=C(C)C[C@]1(N)c1ccc(=O)[nH]c1C2` [HUPERZINE A], the IC50 entry is recorded as “Not Active”.
On to `CC1COc2c(N3CCN(C)CC3)c(F)cc3c(=O)c(C(=O)O)cn1c23` (stereo unspecified) [OFLOXACIN], for which the IC50 result is given as “Not Active”.

The next test has as its target Nitric oxide synthase 1 (Rattus norvegicus, UniProt P29476). Type of test: tissue-based, Cerebellum. Note: in other assays of this panel Not Active means under 50% inhibition at 10 µM.
Conditions: not given
Take `C/C=C1\[C@H]2C=C(C)C[C@]1(N)c1ccc(=O)[nH]c1C2` [HUPERZINE A]: the IC50 result was “Not Active”.
Turning to `CC1COc2c(N3CCN(C)CC3)c(F)cc3c(=O)c(C(=O)O)cn1c23` (stereo unspecified) [OFLOXACIN], the IC50 entry is recorded as “Not Active”.

In a further test the target is T1, Alpha-1A adrenergic receptor (Rattus norvegicus, UniProt P43140).
T1 sequence (P43140 whole entry): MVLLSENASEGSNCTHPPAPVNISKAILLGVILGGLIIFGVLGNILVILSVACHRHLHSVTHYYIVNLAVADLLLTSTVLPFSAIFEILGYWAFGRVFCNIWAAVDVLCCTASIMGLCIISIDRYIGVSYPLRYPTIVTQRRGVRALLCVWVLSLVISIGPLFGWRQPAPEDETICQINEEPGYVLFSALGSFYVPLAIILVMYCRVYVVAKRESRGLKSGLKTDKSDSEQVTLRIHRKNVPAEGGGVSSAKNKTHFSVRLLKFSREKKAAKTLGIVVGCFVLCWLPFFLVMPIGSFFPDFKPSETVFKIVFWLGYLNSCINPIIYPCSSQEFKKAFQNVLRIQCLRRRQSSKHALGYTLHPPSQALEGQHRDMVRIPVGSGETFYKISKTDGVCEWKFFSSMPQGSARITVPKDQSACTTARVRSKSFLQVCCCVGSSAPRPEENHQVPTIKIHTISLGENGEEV
Nature of the test: DRUGMATRIX: Alpha-1A adrenergic receptor radioligand binding (ligand: prazosin). The class given is cell membranes, Wistar, Submaxillary gland, Membrane. As to conditions: Not Active = under 50% inhibition at 10 µM.
Consider `C/C=C1\[C@H]2C=C(C)C[C@]1(N)c1ccc(=O)[nH]c1C2` [HUPERZINE A], for which the IC50 result is reported as “Not Active”.
With `CC1COc2c(N3CCN(C)CC3)c(F)cc3c(=O)c(C(=O)O)cn1c23` (stereo unspecified) [OFLOXACIN], the IC50 entry was “Not Active”.

System in a further test: not listed separately
Description: DRUGMATRIX: Serotonin (5-Hydroxytryptamine) 5-HT3 radioligand binding (ligand: [3H] GR-65630). Type of test: cell membranes, Membrane. Particulars: hek293; Not Active = under 50% inhibition at 10 µM.
For the compound `C/C=C1\[C@H]2C=C(C)C[C@]1(N)c1ccc(=O)[nH]c1C2` [HUPERZINE A], the IC50 entry is “Not Active” and the Ki entry is on record as “Not Active”.
As for `CC1COc2c(N3CCN(C)CC3)c(F)cc3c(=O)c(C(=O)O)cn1c23` (stereo unspecified) [OFLOXACIN], the IC50 result is on record as “Not Active” and the Ki entry is recorded as “Not Active”.

The next test addresses T2, Progesterone receptor (Bos taurus, UniProt Q690N0).
T2 sequence (Q690N0 whole entry): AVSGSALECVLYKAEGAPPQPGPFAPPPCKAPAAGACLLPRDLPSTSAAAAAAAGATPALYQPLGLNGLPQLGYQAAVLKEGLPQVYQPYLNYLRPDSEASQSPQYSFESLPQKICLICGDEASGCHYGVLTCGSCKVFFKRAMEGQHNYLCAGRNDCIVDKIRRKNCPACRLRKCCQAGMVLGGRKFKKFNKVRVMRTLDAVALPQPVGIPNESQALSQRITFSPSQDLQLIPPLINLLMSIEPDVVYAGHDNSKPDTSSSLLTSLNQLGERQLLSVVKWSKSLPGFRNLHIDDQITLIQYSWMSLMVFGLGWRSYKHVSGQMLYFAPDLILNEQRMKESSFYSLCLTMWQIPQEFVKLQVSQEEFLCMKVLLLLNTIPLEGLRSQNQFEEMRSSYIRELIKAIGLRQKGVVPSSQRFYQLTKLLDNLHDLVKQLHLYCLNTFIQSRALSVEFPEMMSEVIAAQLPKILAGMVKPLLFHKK
Description: DRUGMATRIX: Progesterone radioligand binding (ligand: [3H] R-5020). As to conditions: Not Active = under 50% inhibition at 10 µM. The class given is tissue-based, Uterus.
On to `C/C=C1\[C@H]2C=C(C)C[C@]1(N)c1ccc(=O)[nH]c1C2` [HUPERZINE A], for which the IC50 entry is given as “Not Active”.
For the compound `CC1COc2c(N3CCN(C)CC3)c(F)cc3c(=O)c(C(=O)O)cn1c23` (stereo unspecified) [OFLOXACIN], the IC50 result is on record as “Not Active”.

The target of a further test is Matrix metalloproteinase-9 (Homo sapiens, UniProt P14780). Type of test: cell-based.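 Note: inhibition of isolated MMP-9 enzyme activity toward a synthetic peptide substrate, from the DrugMatrix protease screening panel; in other assays of this panel Not Active means under 50% inhibition at 10 µM.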
Sequence of Matrix metalloproteinase-9 (P14780 whole entry): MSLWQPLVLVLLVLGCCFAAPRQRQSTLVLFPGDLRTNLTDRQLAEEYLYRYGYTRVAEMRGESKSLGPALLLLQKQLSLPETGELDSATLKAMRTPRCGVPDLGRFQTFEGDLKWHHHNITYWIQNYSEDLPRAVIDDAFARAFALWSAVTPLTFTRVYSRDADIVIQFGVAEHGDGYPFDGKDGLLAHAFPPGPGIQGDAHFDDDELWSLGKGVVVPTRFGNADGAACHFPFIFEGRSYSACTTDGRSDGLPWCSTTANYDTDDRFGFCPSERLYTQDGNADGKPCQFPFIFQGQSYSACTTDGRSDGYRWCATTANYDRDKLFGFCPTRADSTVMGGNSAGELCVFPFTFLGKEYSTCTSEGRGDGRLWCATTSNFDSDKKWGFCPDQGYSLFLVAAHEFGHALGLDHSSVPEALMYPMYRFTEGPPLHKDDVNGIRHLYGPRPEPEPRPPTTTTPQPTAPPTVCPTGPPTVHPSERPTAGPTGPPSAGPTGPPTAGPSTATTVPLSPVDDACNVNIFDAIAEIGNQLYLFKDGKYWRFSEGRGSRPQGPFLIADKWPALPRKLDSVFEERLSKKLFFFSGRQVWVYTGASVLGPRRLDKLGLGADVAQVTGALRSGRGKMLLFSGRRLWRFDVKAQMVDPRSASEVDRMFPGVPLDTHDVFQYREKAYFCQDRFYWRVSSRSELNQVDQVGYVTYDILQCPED
Conditions: not given
Turning to `C/C=C1\[C@H]2C=C(C)C[C@]1(N)c1ccc(=O)[nH]c1C2` [HUPERZINE A], the IC50 entry was “Not Active”.
On to `CC1COc2c(N3CCN(C)CC3)c(F)cc3c(=O)c(C(=O)O)cn1c23` (stereo unspecified) [OFLOXACIN], for which the IC50 result is “Not Active”.

The target of a further test is Vascular endothelial growth factor receptor 1 (Homo sapiens, UniProt P17948). Type of test: cell-based. Particulars: huvec. Note: in other assays of this panel Not Active means under 50% inhibition at 10 µM.
Sequence of Vascular endothelial growth factor receptor 1 (P17948 whole entry): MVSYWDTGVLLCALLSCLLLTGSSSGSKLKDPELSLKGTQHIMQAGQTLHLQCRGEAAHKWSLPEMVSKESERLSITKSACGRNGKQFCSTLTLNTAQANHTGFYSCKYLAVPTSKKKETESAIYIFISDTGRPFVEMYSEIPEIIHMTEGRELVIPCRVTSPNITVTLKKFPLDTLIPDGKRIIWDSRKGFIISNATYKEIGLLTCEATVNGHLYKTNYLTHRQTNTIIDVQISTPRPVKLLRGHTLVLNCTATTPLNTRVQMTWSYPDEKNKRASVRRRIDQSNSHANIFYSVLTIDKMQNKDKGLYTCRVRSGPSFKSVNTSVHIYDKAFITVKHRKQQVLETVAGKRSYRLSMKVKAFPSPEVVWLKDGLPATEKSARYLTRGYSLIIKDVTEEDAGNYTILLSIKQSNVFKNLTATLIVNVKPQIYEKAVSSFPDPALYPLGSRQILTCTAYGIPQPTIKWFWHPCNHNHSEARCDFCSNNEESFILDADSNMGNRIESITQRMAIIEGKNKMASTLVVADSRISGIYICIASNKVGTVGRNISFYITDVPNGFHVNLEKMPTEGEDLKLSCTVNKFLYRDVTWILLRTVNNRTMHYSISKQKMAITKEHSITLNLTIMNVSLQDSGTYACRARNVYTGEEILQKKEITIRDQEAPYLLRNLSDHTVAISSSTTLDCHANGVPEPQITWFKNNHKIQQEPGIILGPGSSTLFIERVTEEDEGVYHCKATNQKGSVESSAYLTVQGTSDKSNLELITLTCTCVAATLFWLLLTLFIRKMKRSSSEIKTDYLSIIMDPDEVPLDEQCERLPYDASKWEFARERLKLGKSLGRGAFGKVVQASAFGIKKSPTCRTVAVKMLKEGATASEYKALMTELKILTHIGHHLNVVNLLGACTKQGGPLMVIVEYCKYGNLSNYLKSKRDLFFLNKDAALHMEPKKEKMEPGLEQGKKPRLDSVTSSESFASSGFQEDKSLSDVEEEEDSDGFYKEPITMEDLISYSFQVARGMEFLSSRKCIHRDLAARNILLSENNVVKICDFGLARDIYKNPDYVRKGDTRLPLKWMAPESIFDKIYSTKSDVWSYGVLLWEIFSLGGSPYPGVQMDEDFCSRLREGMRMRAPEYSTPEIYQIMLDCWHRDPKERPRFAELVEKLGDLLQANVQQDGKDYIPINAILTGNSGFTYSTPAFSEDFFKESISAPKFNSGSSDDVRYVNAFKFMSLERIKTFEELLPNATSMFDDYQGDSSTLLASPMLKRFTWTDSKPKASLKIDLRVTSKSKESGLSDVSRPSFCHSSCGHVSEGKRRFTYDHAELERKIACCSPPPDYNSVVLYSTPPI
For the compound `C/C=C1\[C@H]2C=C(C)C[C@]1(N)c1ccc(=O)[nH]c1C2` [HUPERZINE A], the IC50 entry is given as “Not Active”.
The same measure, in the same setting: to `CC1COc2c(N3CCN(C)CC3)c(F)cc3c(=O)c(C(=O)O)cn1c23` (stereo unspecified) [OFLOXACIN] belongs “Not Active”.

The next test addresses Sigma non-opioid intracellular receptor 1 (Homo sapiens, UniProt Q99720). Description: DRUGMATRIX: Sigma1 radioligand binding (ligand: [3H] Haloperidol). The class given is cell membranes, Jurkat, Membrane. Particulars: jurkat; Not Active = under 50% inhibition at 10 µM.
As to `C/C=C1\[C@H]2C=C(C)C[C@]1(N)c1ccc(=O)[nH]c1C2` [HUPERZINE A], the IC50 result was “Not Active”.
Take `CC1COc2c(N3CCN(C)CC3)c(F)cc3c(=O)c(C(=O)O)cn1c23` (stereo unspecified) [OFLOXACIN]: the IC50 entry is “Not Active”.

Another test deals with T3, Muscarinic acetylcholine receptor M4 (Homo sapiens, UniProt P08173).
T3 sequence (P08173 whole entry): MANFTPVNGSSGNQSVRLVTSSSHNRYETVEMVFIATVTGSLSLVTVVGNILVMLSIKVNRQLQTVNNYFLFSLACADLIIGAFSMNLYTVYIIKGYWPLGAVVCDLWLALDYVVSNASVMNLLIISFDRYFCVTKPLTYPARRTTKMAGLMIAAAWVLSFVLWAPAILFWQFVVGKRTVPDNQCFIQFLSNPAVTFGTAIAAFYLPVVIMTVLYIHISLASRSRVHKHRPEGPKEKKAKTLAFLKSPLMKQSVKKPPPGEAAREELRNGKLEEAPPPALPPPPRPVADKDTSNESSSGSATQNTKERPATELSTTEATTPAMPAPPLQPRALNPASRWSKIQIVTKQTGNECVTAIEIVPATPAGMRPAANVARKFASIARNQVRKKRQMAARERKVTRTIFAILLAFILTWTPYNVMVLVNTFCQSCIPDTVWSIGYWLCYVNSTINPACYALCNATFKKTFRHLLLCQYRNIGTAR
The class given is cell membranes, CHO-K1, Membrane. Particulars: cho-k1.
Take `C/C=C1\[C@H]2C=C(C)C[C@]1(N)c1ccc(=O)[nH]c1C2` [HUPERZINE A]: the IC50 entry is given as “Not Active”.
Consider `CC1COc2c(N3CCN(C)CC3)c(F)cc3c(=O)c(C(=O)O)cn1c23` (stereo unspecified) [OFLOXACIN], for which the IC50 result is given as “Not Active”.

For another test, the target named is Protein kinase C alpha type (Homo sapiens, UniProt P17252). The class given is cell-based. Particulars: sf9.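 Note: inhibition of PKCalpha kinase activity measured in an enzyme assay with histone as the phosphorylation substrate; in other assays of this panel Not Active means under 50% inhibition at 10 µM.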
For `C/C=C1\[C@H]2C=C(C)C[C@]1(N)c1ccc(=O)[nH]c1C2` [HUPERZINE A], the IC50 result is listed as “Not Active”.
On to `CC1COc2c(N3CCN(C)CC3)c(F)cc3c(=O)c(C(=O)O)cn1c23` (stereo unspecified) [OFLOXACIN], for which the IC50 entry was “Not Active”.

Another test addresses T4, B2 bradykinin receptor (Homo sapiens, UniProt P30411).
T4 sequence (P30411 whole entry): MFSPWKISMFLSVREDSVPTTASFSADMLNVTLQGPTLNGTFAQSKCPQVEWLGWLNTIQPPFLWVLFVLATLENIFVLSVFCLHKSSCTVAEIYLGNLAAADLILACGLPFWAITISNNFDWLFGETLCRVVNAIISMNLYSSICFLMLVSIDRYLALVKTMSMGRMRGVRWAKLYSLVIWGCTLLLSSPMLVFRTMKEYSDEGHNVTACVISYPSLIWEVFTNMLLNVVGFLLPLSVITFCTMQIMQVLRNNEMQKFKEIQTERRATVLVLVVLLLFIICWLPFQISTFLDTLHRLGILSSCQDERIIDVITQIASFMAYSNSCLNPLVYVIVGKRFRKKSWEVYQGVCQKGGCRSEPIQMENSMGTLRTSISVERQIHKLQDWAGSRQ
The class given is cell membranes, Membrane. Particulars: chem-1.
With `C/C=C1\[C@H]2C=C(C)C[C@]1(N)c1ccc(=O)[nH]c1C2` [HUPERZINE A], the IC50 result was “Not Active”.
`CC1COc2c(N3CCN(C)CC3)c(F)cc3c(=O)c(C(=O)O)cn1c23` (stereo unspecified) [OFLOXACIN]: the IC50 result is on record as “Not Active”.

The next test addresses Mitogen-activated protein kinase 14 (Homo sapiens, UniProt Q16539). The arrangement: species or system Escherichia coli.
Conditions: not given
For `C/C=C1\[C@H]2C=C(C)C[C@]1(N)c1ccc(=O)[nH]c1C2` [HUPERZINE A], the IC50 entry is listed as “Not Active”.
On to `CC1COc2c(N3CCN(C)CC3)c(F)cc3c(=O)c(C(=O)O)cn1c23` (stereo unspecified) [OFLOXACIN], for which the IC50 result was “Not Active”.
